In the experiment the test system is kynurenine production in IFN-γ-treated KATO-III cells. The experiment in a line: Inhibitory activity on kynurenine production (Test Example 1). It counts as cell-based. The settings on record: Homo sapiens, IFN-γ treatment, culture for 96 hours, read-out: IC50 value, inhibition of kynurenine production. Here is the method:
This assay was performed according to a method modified from the method described in the Journal of Biological Chemistry (J. Biol. Chem.), vol. 263, pp. 2041-2048 (1988). Culture of KATO-III derived from human gastric cancer cells was performed by use of RPMI 1640 (GIBCO, 11875) supplemented with 10 vol % FBS (GIBCO, 10091-148, lot. 665285). 1 μL of a DMSO solution of the test substance was diluted with 199 μL of the culture medium, and the diluted solution was added to wells of a 384 well plate (10 μL/well). Then, IFN-γ (Sigma, 1-3265) was added to the culture medium so that the concentration of IFN-γ was 31.25 ng/mL, and the KATO-III cells were suspended at 50,000 cells/ml, in the culture medium. 40 μL of the suspension was added to each well (2,000 cells/well), and culture of the KATO-III cells was performed at 37° C. under a 5% CO2 atmosphere for 96 hours. The final concentration of DMSO was limited to 0.1 vol % or less so that DMSO itself might not affect the kynurenine concentration measured by this assay. After the culture, 10 μL of a 30 w/v % aqueous trichloroacetic acid solution was added to each well, and incubation was performed at 65° C. for 30 minutes. The plate was centrifuged at 2,500×g for 5 minutes, and then 15 μL of the supernatant in each well was transferred into another 384 well plate. To each of the transferred supernatants, 15 μL of a 2 w/v % solution of p-dimethylaminobenzaldehyde in acetic acid was added, incubation was performed at 65° C. for 20 minutes, and then the absorbance at 480 nm was measured.
[formula] Sample: the absorbance value of the well to which a DMSO solution containing the test substance was added and in which cells were treated with IFN-γ. Blank: the absorbance value of the well to which only DMSO, not the test substance was added and in which cells were treated with IFN-γ. Control: the absorbance value of the well to which only DMSO, not the test substance was added and in which cells were not treated with IFN-γ.
In this assay, expression of IDO in KATO-III cells is induced by IFN-γ treatment and then kynurenine in the culture medium is quantified. It is known that the kynurenine concentration in a culture medium increases in proportion to the enzymatic activity of intracellular IDO (for example, the Journal of Biological Chemistry (J. Biol. Chem.), vol. 263, pp. 2041-2048 (1988)). […] It is known that kynurenine production is inhibited by IDO inhibitors (for example, the Journal of Clinical Investigation (J. Clin. Invest.), vol. 117, No. 5, pp. 1147-1154 […]), and thus it is expected that Compound (I) also has an inhibitory effect on IDO.
`CCCS(=O)(=O)Nc1nc2ccccc2nc1OC(C(F)(F)F)C1(F)CCN(S(C)(=O)=O)CC1` (centres unmarked) [Compound 355, N-{3-[2,2,2-trifluoro-1-(4-fluoro-1-methanesulfonylpiperidin-4-yl)ethoxy]quinoxalin-2-yl}propane-1-sulfonamide]: the IC50 is below 1000 nM. The figure for `COc1ccccc1S(=O)(=O)Nc1nc2ccccc2nc1OC(c1cccnc1)C(F)(F)F` (centres unmarked) [Compound 158, 2-methoxy-N-{3-[2,2,2-trifluoro-1-(pyridin-3-yl)ethoxy]-quinoxalin-2-yl}benzenesulfonamide] is below 1000 nM. The figure for `CCCS(=O)(=O)Nc1nc2ccccc2nc1OC(c1cncn1C)C(F)(F)F` (centres unmarked) [Compound 277, N-{3-[2,2,2-trifluoro-1-(1-methyl-1H-imidazol-5-yl)ethoxy]-quinoxalin-2-yl}propane-1-sulfonamide] is 1000 to 10000 nM; for `CCCNS(=O)(=O)Nc1nc2ccccc2nc1OC(c1cncs1)C(F)(F)F` (centres unmarked) [Compound 281, N-{3-[2,2,2-trifluoro-1-(thiazol-5-yl)ethoxy]quinoxalin-2-yl}-N′-propyl-sulfuric diamide] it is below 1000 nM.

For the molecule `Cc1ccc(C(Oc2nc3ccccc3nc2NS(=O)(=O)c2c(C)noc2C)C(F)(F)F)cn1` (centres unmarked) [Compound 70, 3,5-dimethyl-N-{3-[2,2,2-trifluoro-1-(6-methylpyridin-3-yl)ethoxy]quinoxalin-2-yl}isoxazole-4-sulfonamide], the IC50 was below 1000 nM.

Consider `CN(C)S(=O)(=O)Nc1nc2ccccc2nc1OC(c1cccnc1)C(F)(F)F` (centres unmarked) [Compound 174, N-{3-[2,2,2-trifluoro-1-(pyridin-3-yl)ethoxy]quinoxalin-2-yl}-N′,N′-dimethyl-sulfuric diamide], for which the IC50 is below 1000 nM. The figure for `CCCS(=O)(=O)Nc1nc2ccccc2nc1OC(c1ccc(C)nc1)C(F)(F)F` (centres unmarked) [Compound 192, N-{3-[2,2,2-trifluoro-1-(6-methylpyridin-3-yl)ethoxy]-quinoxalin-2-yl}propane-1-sulfonamide] is below 1000 nM. The figure for `CC(C)(C)C(Oc1nc2ccccc2nc1NS(=O)(=O)c1cccc(Cl)c1Cl)c1cccnc1` (centres unmarked) [Compound 37, 2,3-dichloro-N-{3-[2,2-dimethyl-1-(pyridin-3-yl)propoxy]-quinoxalin-2-yl}benzenesulfonamide] is below 1000 nM; for `O=S(=O)(Nc1nc2ccccc2nc1OCc1ccc2ccccc2c1)c1cccc2ccccc12` [Compound 11, N-{3-[(2-naphthyl)methoxy]quinoxalin-2-yl}-1-naphthalenesulfonamide] it is below 1000 nM; for `CCCNS(=O)(=O)Nc1nc2ccccc2nc1OC(c1ccc(C)nc1)C(F)(F)F` (centres unmarked) [Compound 280, N-{3-[2,2,2-trifluoro-1-(6-methylpyridin-3-yl)ethoxy]-quinoxalin-2-yl}-N′-propyl-sulfuric diamide] it is below 1000 nM. The result for `CCCNS(=O)(=O)Nc1nc2ccccc2nc1OC(c1ccc[n+]([O-])c1)C(C)C` (centres unmarked) [Compound 214, 3-{2-methyl-1-[3-(N-propylsulfamoylamino)quinoxalin-2-yloxy]propyl}pyridine 1-oxide] reads below 1000 nM; that for `Cc1nn(C)c(Cl)c1S(=O)(=O)Nc1nc2ccccc2nc1OC(C1CCSCC1)C(F)(F)F` (centres unmarked) [Compound 130, 5-chloro-1,3-dimethyl-N-{3-[2,2,2-trifluoro-1-(tetrahydro-2H-thiopyran-4-yl)ethoxy]quinoxalin-2-yl}-1H-pyrazole-4-sulfonamide], below 1000 nM. For the molecule `O=S(=O)(Nc1nc2ccccc2nc1OC(c1cccnc1)C(F)(F)F)c1ccc(Cl)cc1` (centres unmarked) [Compound 182, 4-chloro-N-{3-[2,2,2-trifluoro-1-(pyridin-3-yl)ethoxy]-quinoxalin-2-yl}benzenesulfonamide], the 50% inhibitory concentration (IC50) is below 1000 nM. The result for `O=S(=O)(Nc1nc2ccccc2nc1OC(C1CC1)C(F)(F)F)c1ccccc1Cl` (centres unmarked) [Compound 117, 2-chloro-N-[3-(1-cyclopropyl-2,2,2-trifluoroethoxy)-quinoxalin-2-yl]benzenesulfonamide] reads below 1000 nM; that for `Cc1noc(C)c1S(=O)(=O)Nc1nc2ccccc2nc1OC(c1cncn1C)C(F)(F)F` (centres unmarked) [Compound 171, 3,5-dimethyl-N-{3-[2,2,2-trifluoro-1-(1-methyl-1H-imidazol-5-yl)ethoxy]quinoxalin-2-yl}isoxazole-4-sulfonamide], below 1000 nM. The result for `Cc1nn(C)c(Cl)c1S(=O)(=O)Nc1nc2ccccc2nc1OC(c1ccc(C#N)cc1)C(F)(F)F` (centres unmarked) [Compound 200, 5-chloro-N-{3-[1-(4-cyanophenyl)-2,2,2-trifluoroethoxy]-quinoxalin-2-yl}-1,3-dimethyl-1H-pyrazole-4-sulfonamide] reads below 1000 nM; that for `CCCCS(=O)(=O)Nc1nc2ccccc2nc1OC(c1cccnc1)C(F)(F)F` (centres unmarked) [Compound 191, N-{3-[2,2,2-trifluoro-1-(pyridin-3-yl)ethoxy]quinoxalin-2-yl}butane-1-sulfonamide], below 1000 nM; that for `O=S(=O)(Nc1nc2ccccc2nc1OCc1ccc2ccccc2c1)c1cccc(Cl)c1Cl` [Compound 10, 2,3-dichloro-N-{3-[(2-naphthyl)methoxy]quinoxalin-2-yl}-benzenesulfonamide], below 1000 nM. With `O=S(=O)(Nc1nc2ccccc2nc1OC(c1cccnc1)C(F)(F)F)c1cc(Cl)cc(Cl)c1` (centres unmarked) [Compound 152, 3,5-dichloro-N-{3-[2,2,2-trifluoro-1-(pyridin-3-yl)ethoxy]-quinoxalin-2-yl}benzenesulfonamide], the IC50 was below 1000 nM. The figure for `O=S(=O)(Nc1nc2ccccc2nc1OC(c1ccc(Br)nc1)C(F)(F)F)c1ccccc1Cl` (centres unmarked) [Compound 86, 2-chloro-N-{3-[2,2,2-trifluoro-1-(6-bromopyridin-3-yl)-ethoxy]quinoxalin-2-yl}benzenesulfonamide] is below 1000 nM; for `O=S(=O)(Nc1nc2ccccc2nc1OC(c1cccnc1)C(F)(F)F)NC1CC1` (centres unmarked) [Compound 189, N-cyclopropyl-N′-{3-[2,2,2-trifluoro-1-(pyridin-3-yl)-ethoxy]quinoxalin-2-yl}sulfuric diamide] it is below 1000 nM. The result for `Cc1ccc(S(=O)(=O)Nc2nc3ccccc3nc2OCc2ccc3ccccc3c2)cc1` [Compound 13, N-{3-[(2-naphthyl)methoxy]quinoxalin-2-yl}-4-toluenesulfonamide] reads 1000 to 10000 nM; that for `O=S(=O)(Nc1nc2ccccc2nc1OC(c1cnc(Br)s1)C(F)(F)F)c1ccccc1Cl` (centres unmarked) [Compound 126, 2-chloro-N-{3-[2,2,2-trifluoro-1-(2-bromothiazol-5-yl)-ethoxy]quinoxalin-2-yl}benzenesulfonamide], below 1000 nM; that for `CCC(Oc1nc2ccccc2nc1NS(=O)(=O)c1cccc(Cl)c1Cl)c1cccnc1` (centres unmarked) [Compound 31, 2,3-dichloro-N-{3-[1-(pyridin-3-yl)propoxy]quinoxalin-2-yl}benzenesulfonamide], below 1000 nM. The result for `Cc1ncc(C(Oc2nc3ccccc3nc2NS(=O)(=O)c2ccccc2Cl)C(F)(F)F)n1C` (centres unmarked) [Compound 115, 2-chloro-N-{3-[2,2,2-trifluoro-1-(1,2-dimethyl-1H-imidazol-5-yl)ethoxy]quinoxalin-2-yl}benzenesulfonamide] reads below 1000 nM; that for `O=S(=O)(Nc1nc2ccccc2nc1OC(C1CCOCC1)C(F)(F)F)NC1CC1` (centres unmarked) [Compound 299, N-{3-[2,2,2-trifluoro-1-(tetrahydro-2H-pyran-4-yl)ethoxy]-quinoxalin-2-yl}-N′-cyclopropyl-sulfuric diamide], below 1000 nM; that for `CCCS(=O)(=O)Nc1nc2ccccc2nc1OC(C1CCN(C(=O)CC)CC1)C(F)(F)F` (centres unmarked) [Compound 340, N-{3-[2,2,2-trifluoro-1-(1-propionylpiperidin-4-yl)ethoxy]-quinoxalin-2-yl}propane-1-sulfonamide], below 1000 nM. On to `CCCS(=O)(=O)Nc1nc2ccccc2nc1OC(C(F)(F)F)C1(C)CCN(C(C)=O)CC1` (centres unmarked) [Compound 356, N-{3-[2,2,2-trifluoro-1-(1-acetyl-4-methylpiperidin-4-yl)-ethoxy]quinoxalin-2-yl}propane-1-sulfonamide], for which the IC50 was below 1000 nM. As for `O=S(=O)(Nc1nc2ccccc2nc1OC(c1cccnc1)C(F)(F)F)C1CC1` (centres unmarked) [Compound 150, N-{3-[2,2,2-trifluoro-1-(pyridin-3-yl)ethoxy]quinoxalin-2-yl}cyclopropanesulfonamide], the 50% inhibitory concentration (IC50) was below 1000 nM.

For the origin of these results see US8673908B2, “Kynurenine production inhibitor” (Kyowa Hakko Kirin Co., Ltd., priority 2008, dated 2014).
